Laboratory results as given in patent EP1984353B1, “AURORA KINASE MODULATORS AND METHOD OF USE” (Amgen, Inc, priority 2006, dated 2007).
Read-outs that look alike come from different tables or passages of the source.

Legend:
AuroraA-TPX2 = target: T1, AuroraA-TPX2 (Homo sapiens, UniProt O14965); assay: AuroraA-TPX2 Homogeneous Time Resolved Fluorescent (HTRF) kinase assay; format: biochemical; details: average, read-out: AurA/TP X2_ IC50_IP (Avg)
T1 construct: 20 µL of AuroraA-TPX2 KD GST; GST
T1 sequence (O14965 133-383 limits assumed): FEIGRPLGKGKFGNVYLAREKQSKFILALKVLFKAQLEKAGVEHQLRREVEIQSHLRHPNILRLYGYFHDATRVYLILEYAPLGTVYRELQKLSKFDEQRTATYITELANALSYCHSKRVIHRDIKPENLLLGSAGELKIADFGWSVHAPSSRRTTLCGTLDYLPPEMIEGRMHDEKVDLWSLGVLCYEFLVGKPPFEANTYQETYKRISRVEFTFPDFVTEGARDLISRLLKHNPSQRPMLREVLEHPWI
T1 sequence (Q9ULW0 1-43 partner limits assumed): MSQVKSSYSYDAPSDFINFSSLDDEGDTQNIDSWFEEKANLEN
Summary of the method: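 HTRF read-out: europium anti-phosphoPLK antibody (0.02 nM) plus streptavidin-APC detect phosphorylated biotin-PLK after EDTA stop and overnight equilibration. Kinase step runs about 120 min with Aurora-A/TPX2, ATP and roughly 1 µM PLK peptide at pH 7.5 HEPES buffer with Mg2+ and DTT.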

AuroraB = target: T2, AuroraB (Homo sapiens, UniProt Q96GD4); assay: AuroraB Homogeneous Time Resolved Fluorescent (HTRF) kinase assay; format: biochemical; details: average, read-out: AurB_ _IC50_IP (Avg)
T2 construct: 20 µL of AuroraB FL His; His
T2 sequence (Q96GD4 whole entry): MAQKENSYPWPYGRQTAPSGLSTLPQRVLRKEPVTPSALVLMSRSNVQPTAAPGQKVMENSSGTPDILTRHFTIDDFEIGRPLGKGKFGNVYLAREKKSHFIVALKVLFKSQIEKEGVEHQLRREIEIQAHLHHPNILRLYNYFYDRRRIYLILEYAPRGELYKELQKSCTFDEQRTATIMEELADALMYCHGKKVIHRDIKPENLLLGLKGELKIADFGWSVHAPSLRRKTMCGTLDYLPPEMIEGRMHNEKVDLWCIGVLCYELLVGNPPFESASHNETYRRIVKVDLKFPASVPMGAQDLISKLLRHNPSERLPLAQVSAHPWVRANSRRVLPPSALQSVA
Summary of the method: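 HTRF read-out: after EDTA stop and ~60 min with europium anti-phospho-H3 antibody and streptavidin-APC, 655/615 nm ratio reports phosphorylation. Reaction: 400 pM AuroraB FL His, 23 µM ATP (at Km(app)), 0.1 µM biotin-Histone H3 peptide, 50 mM HEPES pH 7.5, MgCl/MnCl, ~90 min.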

[1] = given as numbers, unit inferred

Row | IC50 (AuroraA-TPX2; given as class symbols) [µM] | IC50 (AuroraB; given as class symbols) [µM] | IC50 (AuroraA-TPX2; [1]) [µM] | IC50 (AuroraB; [1]) [µM] | SMILES
1 | ≤ 0.1 | ≤ 0.1 | – | – | Nc1nccc(-c2cccnc2Oc2ccc(Nc3nnc(N4CCCC(CO)C4)c4ccccc34)cc2)n1 (stereo not drawn) [compound 352, (1-(4-((4-((3-(2-amino-4-pyrimidinyl)-2-pyridinyl)oxy)phenyl)amino)-1-phthalazinyl)-3-piperidinyl)methanol]
2 | – | – | 0.0874 | 0.0259 | Nc1nccc(-c2cccnc2Oc2ccc(Nc3nnc(N4CCCC(O)C4)c4ccccc34)cc2)n1 (stereo not drawn) [compound 354, 1-(4-((4-((3-(2-amino-4-pyrimidinyl)-2-pyridinyl)oxy)phenyl)amino)-1-phthalazinyl)-3-piperidinol]
3 | ≤ 0.1 | ≤ 0.1 | – | – | Nc1nccc(-c2cccnc2Oc2ccc(Nc3nnc(-c4cccc(CCO)c4)c4ccccc34)cc2)n1 [compound 355, 2-(3-(4-((4-((3-(2-amino-4-pyrimidinyl)-2-pyridinyl)oxy)phenyl)amino)-1-phthalazinyl)phenyl)ethanol]
4 | ≤ 0.1 | ≤ 0.1 | – | – | Nc1nccc(-c2cccnc2Oc2ccc(Nc3nnc(-c4ccccn4)c4ccccc34)cc2)n1 [compound 356, N-(4-((3-(2-amino-4-pyrimidinyl)-2-pyridinyl)oxy)phenyl)-4-(2-pyridinyl)-1-phthalazinamine]
5 | ≤ 0.1 | ≤ 0.1 | – | – | CC(C)(O)c1cccc(-c2nnc(Nc3ccc(Oc4ncccc4-c4ccnc(N)n4)cc3)c3ccccc23)c1 [compound 357, 2-(3-(4-((4-((3-(2-amino-4-pyrimidinyl)-2-pyridinyl)oxy)phenyl)amino)-1-phthalazinyl)phenyl)-2-propanol]
6 | 0.5 to 2.5 | ≤ 0.1 | – | – | Nc1nccc(-c2cccnc2Oc2ccc(Nc3nnc(N4CCC(O)CC4)c4ccccc34)cc2)n1 [compound 358, 1-(4-((4-((3-(2-amino-4-pyrimidinyl)-2-pyridinyl)oxy)phenyl)amino)-1-phthalazinyl)-4-piperidinol]
7 | ≤ 0.1 | ≤ 0.1 | – | – | Cc1csc(-c2nnc(Nc3ccc(Oc4ncccc4-c4ccnc(NCCCO)n4)cc3)c3ccccc23)n1 [compound 359, 3-((4-(2-((4-((4-(4-methyl-1,3-thiazol-2-yl)-1-phthalazinyl)amino)phenyl)oxy)-3-pyridinyl)-2-pyrimidinyl)amino)-1-propanol]
8 | ≤ 0.1 | ≤ 0.1 | – | – | C[C@H](O)c1cccc(-c2nnc(Nc3ccc(Oc4ncccc4-c4ccnc(N)n4)cc3)c3ccccc23)c1 [compound 360, (1S)-1-(3-(4-((4-((3-(2-amino-4-pyrimidinyl)-2-pyridinyl)oxy)phenyl)amino)-1-phthalazinyl)phenyl)ethanol]
9 | ≤ 0.1 | ≤ 0.1 | – | – | C[C@@H](O)c1cccc(-c2nnc(Nc3ccc(Oc4ncccc4-c4ccnc(N)n4)cc3)c3ccccc23)c1 [compound 361, (1R)-1-(3-(4-((4-((3-(2-amino-4-pyrimidinyl)-2-pyridinyl)oxy)phenyl)amino)-1-phthalazinyl)phenyl)ethanol]
10 | ≤ 0.1 | ≤ 0.1 | – | – | Nc1nccc(-c2cccnc2Oc2ccc(Nc3nnc(-c4cccc(CCCOP(=O)(O)O)c4)c4ccccc34)cc2)n1 [compound 362, 3-(3-(4-((4-((3-(2-amino-4-pyrimidinyl)-2-pyridinyl)oxy)phenyl)amino)-1-phthalazinyl)phenyl)propyl dihydrogen phosphate]
11 | ≤ 0.1 | ≤ 0.1 | – | – | Nc1nccc(-c2cccnc2Oc2ccc(Nc3nnc(-c4cccc(O)c4)c4ccccc34)cn2)n1 [compound 363, 3-(4-((6-((3-(2-amino-4-pyrimidinyl)-2-pyridinyl)oxy)-3-pyridinyl)amino)-1-phthalazinyl)phenol]
12 | 0.1 to 0.5 | ≤ 0.1 | – | – | Nc1nccc(-c2cccnc2Oc2ccc(Nc3nnc(-c4ccccc4O)c4ccccc34)cc2)n1 [compound 364, 2-(4-((4-((3-(2-amino-4-pyrimidinyl)-2-pyridinyl)oxy)phenyl)amino)-1-phthalazinyl)phenol]
13 | – | – | 0.0276 | 0.0113 | Nc1nccc(-c2cccnc2Oc2ccc(Nc3nnc(-c4ccccc4O)c4ccccc34)cn2)n1 [compound 365, 2-(4-((6-((3-(2-amino-4-pyrimidinyl)-2-pyridinyl)oxy)-3-pyridinyl)amino)-1-phthalazinyl)phenol]
14 | 0.1 to 0.5 | 0.1 to 0.5 | – | – | Nc1nccc(-c2cccnc2Oc2ccc(Nc3nnc(-c4cccc(OP(=O)(O)O)c4)c4ccccc34)cc2)n1 [compound 366, 3-(4-((4-((3-(2-amino-4-pyrimidinyl)-2-pyridinyl)oxy)phenyl)amino)-1-phthalazinyl)phenyl dihydrogen phosphate]
15 | ≤ 0.1 | ≤ 0.1 | – | – | OCCCNc1nccc(-c2cccnc2Oc2ccc(Nc3nnc(-c4ccccc4)c4ccccc34)cn2)n1 [compound 367, 3-((4-(2-((5-((4-phenyl-1-phthalazinyl)amino)-2-pyridinyl)oxy)-3-pyridinyl)-2-pyrimidinyl)amino)-1-propanol]
16 | 0.5 to 2.5 | 0.5 to 2.5 | – | – | Nc1nccc(-c2cccnc2Oc2ccc(Nc3nnc(-c4ccccc4OP(=O)(O)O)c4ccccc34)cc2)n1 [compound 368, 2-(4-((4-((3-(2-amino-4-pyrimidinyl)-2-pyridinyl)oxy)phenyl)amino)-1-phthalazinyl)phenyl dihydrogen phosphate]
17 | ≤ 0.1 | ≤ 0.1 | – | – | C[C@H](O)c1cccc(-c2nnc(Nc3ccc(Oc4ncccc4-c4ccnc(N)n4)nc3)c3ccccc23)c1 [compound 369, (1S)-1-(3-(4-((6-((3-(2-amino-4-pyrimidinyl)-2-pyridinyl)oxy)-3-pyridinyl)amino)-1-phthalazinyl)phenyl)ethanol]
18 | ≤ 0.1 | ≤ 0.1 | – | – | Cc1cc(-c2cccc(CO)c2)nnc1Nc1ccc(Oc2ncccc2-c2ccnc(N)n2)cc1 [compound 370, (3-(6-((4-((3-(2-amino-4-pyrimidinyl)-2-pyridinyl)oxy)phenyl)amino)-5-methyl-3-pyridazinyl)phenyl)methanol]
19 | 0.1 to 0.5 | ≤ 0.1 | – | – | Nc1cc(-c2cccnc2Oc2ccc(Nc3nnc(-c4ccccc4O)c4ccccc34)cc2)ccn1 [compound 371, 2-(4-((4-((2'-amino-3,4'-bipyridin-2-yl)oxy)phenyl)amino)-1-phthalazinyl)phenol]
20 | ≤ 0.1 | ≤ 0.1 | – | – | COc1ccc(F)c(-c2nnc(Nc3ccc(Oc4ncccc4-c4ccnc(N)n4)cc3)c3ccccc23)c1 [compound 372, N-(4-((3-(2-amino-4-pyrimidinyl)-2-pyridinyl)oxy)phenyl)-4-(2-fluoro-5-(methyloxy)phenyl)-1-phthalazinamine]
21 | ≤ 0.1 | ≤ 0.1 | – | – | Nc1nccc(-c2cccnc2Oc2ccc(Nc3nnc(-c4cc(O)ccc4F)c4ccccc34)cc2)n1 [compound 373, 3-(4-((4-((3-(2-amino-4-pyrimidinyl)-2-pyridinyl)oxy)phenyl)amino)-1-phthalazinyl)-4-fluorophenol]
22 | ≤ 0.1 | ≤ 0.1 | – | – | CN(C)CCCOc1cccc(-c2nnc(Nc3ccc(Oc4ncccc4-c4ccnc(N)n4)cc3)c3ccccc23)c1 [compound 374, N-(4-((3-(2-amino-4-pyrimidinyl)-2-pyridinyl)oxy)phenyl)-4-(3-((3-(dimethylamino)propyl)oxy)phenyl)-1-phthalazinamine]
23 | ≤ 0.1 | ≤ 0.1 | – | – | Nc1nccc(-c2cccnc2Oc2ccc(Nc3nnc(-c4cccc(CO)c4)c4ccccc34)cn2)n1 [compound 375, (3-(4-((6-((3-(2-amino-4-pyrimidinyl)-2-pyridinyl)oxy)-3-pyridinyl)amino)-1-phthalazinyl)phenyl)methanol]
24 | ≤ 0.1 | ≤ 0.1 | – | – | COc1ccc(F)c(-c2nnc(Nc3ccc(Oc4ncccc4-c4ccnc(N)n4)nc3)c3ccccc23)c1 [compound 376, N-(6-((3-(2-amino-4-pyrimidinyl)-2-pyridinyl)oxy)-3-pyridinyl)-4-(2-fluoro-5-(methyloxy)phenyl)-1-phthalazinamine]
25 | ≤ 0.1 | ≤ 0.1 | – | – | Nc1nccc(-c2cccnc2Oc2ccc(Nc3nnc(-c4cccc(OC(F)(F)F)c4)c4ccccc34)cc2)n1 [compound 377, N-(4-((3-(2-amino-4-pyrimidinyl)-2-pyridinyl)oxy)phenyl)-4-(3-((trifluoromethyl)oxy)phenyl)-1-phthalazinamine]
26 | ≤ 0.1 | ≤ 0.1 | – | – | Nc1nccc(-c2cccnc2Oc2ccc(Nc3nnc(-c4cccc(OC(F)(F)F)c4)c4ccccc34)cn2)n1 [compound 378, N-(6-((3-(2-amino-4-pyrimidinyl)-2-pyridinyl)oxy)-3-pyridinyl)-4-(3-((trifluoromethyl)oxy)phenyl)-1-phthalazinamine]
27 | ≤ 0.1 | ≤ 0.1 | – | – | Nc1nccc(-c2cccnc2Oc2ccc(Nc3nnc(-c4cc(O)ccc4F)c4ccccc34)cn2)n1 [compound 379, 3-(4-((6-((3-(2-amino-4-pyrimidinyl)-2-pyridinyl)oxy)-3-pyridinyl)amino)-1-phthalazinyl)-4-fluorophenol]
